Laboratory results published in publication PMC11233931, “Remodeling tumor‐associated macrophage for anti‐cancer effects by rational design of irreversible inhibition of mitogen‐activated protein kinase‐activated protein kinase 2” (MedComm, 2024).

Key:
Test in all cases: Eurofins kinase selectivity profile against 380 other human recombinant kinases (Table S2)
Type in all cases: biochemical
[1] = molecular target: T1, 380 human recombinant protein kinases (Homo sapiens, UniProt P31751); details: PKBβ(h), read-out: Inhibition rate
T1 construct: purchased Eurofins (Celle Lévescault)
In short: (§1)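 Commercial selectivity screen of the test compound against a panel of 380 human recombinant protein kinases, run by an outside contractor at several compound concentrations to check whether its potency was specific for MK2.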

[2] = molecular target: T2, 380 human recombinant protein kinases (Homo sapiens, UniProt O00329); details: PI3 Kinase (p110δ/p85α)(h), read-out: Inhibition rate (%)
T2 construct: purchased Eurofins (Celle Lévescault)
T2 sequence (O00329 1-1044): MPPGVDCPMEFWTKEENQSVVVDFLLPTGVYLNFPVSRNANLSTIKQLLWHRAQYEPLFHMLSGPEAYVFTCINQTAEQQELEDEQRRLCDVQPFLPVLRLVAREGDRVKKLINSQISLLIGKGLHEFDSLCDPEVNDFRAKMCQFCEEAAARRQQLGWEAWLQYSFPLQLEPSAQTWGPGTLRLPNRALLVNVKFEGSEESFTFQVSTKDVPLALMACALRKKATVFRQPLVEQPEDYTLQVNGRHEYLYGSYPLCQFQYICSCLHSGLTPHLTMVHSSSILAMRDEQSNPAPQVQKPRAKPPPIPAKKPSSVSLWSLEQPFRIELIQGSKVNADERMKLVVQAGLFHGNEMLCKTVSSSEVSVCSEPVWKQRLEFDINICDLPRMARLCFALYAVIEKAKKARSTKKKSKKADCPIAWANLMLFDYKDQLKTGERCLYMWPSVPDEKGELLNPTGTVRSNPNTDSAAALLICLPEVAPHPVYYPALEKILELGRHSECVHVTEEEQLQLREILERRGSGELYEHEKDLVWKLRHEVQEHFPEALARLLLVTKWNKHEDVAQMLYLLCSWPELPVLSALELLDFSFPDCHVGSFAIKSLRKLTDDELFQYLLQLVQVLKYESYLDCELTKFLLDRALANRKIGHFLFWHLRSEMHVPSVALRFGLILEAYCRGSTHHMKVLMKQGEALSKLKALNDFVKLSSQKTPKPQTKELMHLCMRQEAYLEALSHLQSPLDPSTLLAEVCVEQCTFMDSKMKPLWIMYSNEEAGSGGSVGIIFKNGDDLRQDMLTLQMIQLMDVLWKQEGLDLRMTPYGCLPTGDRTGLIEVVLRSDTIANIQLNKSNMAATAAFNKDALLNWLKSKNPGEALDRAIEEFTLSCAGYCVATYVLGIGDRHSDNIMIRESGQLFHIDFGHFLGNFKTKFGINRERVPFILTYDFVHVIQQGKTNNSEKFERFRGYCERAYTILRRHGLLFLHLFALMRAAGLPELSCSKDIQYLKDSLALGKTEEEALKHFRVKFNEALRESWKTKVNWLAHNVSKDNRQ
In short: as §1

[3] = molecular target: T3, 380 human recombinant protein kinases (Homo sapiens, UniProt Q9P289); details: MST4(h), read-out: Inhibition rate
T3 construct: purchased Eurofins (Celle Lévescault)
In short: as §1

[4] = molecular target: T4, 380 human recombinant protein kinases (Homo sapiens, UniProt Q9UKE5); details: TNIK(h), read-out: Inhibition rate (%)
T4 construct: purchased Eurofins (Celle Lévescault)
In short: as §1

[5] = molecular target: T5, 380 human recombinant protein kinases (Homo sapiens, UniProt P35626); details: GRK3(h), read-out: Inhibition rate
T5 construct: purchased Eurofins (Celle Lévescault)
T5 sequence (P35626 1-688): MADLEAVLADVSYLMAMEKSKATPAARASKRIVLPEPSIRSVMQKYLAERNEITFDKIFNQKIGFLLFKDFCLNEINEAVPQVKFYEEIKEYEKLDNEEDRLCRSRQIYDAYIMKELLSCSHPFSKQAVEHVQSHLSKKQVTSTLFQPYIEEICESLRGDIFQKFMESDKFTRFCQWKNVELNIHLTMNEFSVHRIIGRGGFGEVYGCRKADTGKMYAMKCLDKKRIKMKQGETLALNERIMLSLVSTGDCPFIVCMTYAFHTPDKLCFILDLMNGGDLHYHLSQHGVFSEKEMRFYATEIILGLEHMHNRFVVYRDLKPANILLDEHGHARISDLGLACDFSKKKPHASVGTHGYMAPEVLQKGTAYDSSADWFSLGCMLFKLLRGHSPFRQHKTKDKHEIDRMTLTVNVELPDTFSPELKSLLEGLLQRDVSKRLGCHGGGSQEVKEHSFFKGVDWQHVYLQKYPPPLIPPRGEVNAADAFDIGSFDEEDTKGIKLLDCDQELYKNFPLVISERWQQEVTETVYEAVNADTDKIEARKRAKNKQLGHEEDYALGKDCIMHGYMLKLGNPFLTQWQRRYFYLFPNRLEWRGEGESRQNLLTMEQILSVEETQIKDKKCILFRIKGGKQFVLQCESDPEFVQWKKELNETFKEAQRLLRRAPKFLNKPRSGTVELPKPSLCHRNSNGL
In short: as §1

[6] = molecular target: T6, 380 human recombinant protein kinases (Homo sapiens, UniProt Q9H4B4); details: Plk3(h), read-out: Inhibition rate
T6 construct: purchased Eurofins (Celle Lévescault)
In short: as §1

[7] = molecular target: T7, 380 human recombinant protein kinases (Homo sapiens, UniProt Q9UPE1); details: MSSK1(h), read-out: Inhibition rate
T7 construct: purchased Eurofins (Celle Lévescault)
In short: as §1

[8] = molecular target: T8, 380 human recombinant protein kinases (Homo sapiens, UniProt Q86UX6); details: STK32C(h), read-out: Inhibition rate (%)
T8 construct: purchased Eurofins (Celle Lévescault)
In short: as §1

[9] = molecular target: T9, 380 human recombinant protein kinases (Homo sapiens, UniProt Q9Y2K2); details: SIK3(h), read-out: Inhibition rate (%)
T9 construct: purchased Eurofins (Celle Lévescault)
In short: as §1

T7 sequence (Q9UPE1 whole entry): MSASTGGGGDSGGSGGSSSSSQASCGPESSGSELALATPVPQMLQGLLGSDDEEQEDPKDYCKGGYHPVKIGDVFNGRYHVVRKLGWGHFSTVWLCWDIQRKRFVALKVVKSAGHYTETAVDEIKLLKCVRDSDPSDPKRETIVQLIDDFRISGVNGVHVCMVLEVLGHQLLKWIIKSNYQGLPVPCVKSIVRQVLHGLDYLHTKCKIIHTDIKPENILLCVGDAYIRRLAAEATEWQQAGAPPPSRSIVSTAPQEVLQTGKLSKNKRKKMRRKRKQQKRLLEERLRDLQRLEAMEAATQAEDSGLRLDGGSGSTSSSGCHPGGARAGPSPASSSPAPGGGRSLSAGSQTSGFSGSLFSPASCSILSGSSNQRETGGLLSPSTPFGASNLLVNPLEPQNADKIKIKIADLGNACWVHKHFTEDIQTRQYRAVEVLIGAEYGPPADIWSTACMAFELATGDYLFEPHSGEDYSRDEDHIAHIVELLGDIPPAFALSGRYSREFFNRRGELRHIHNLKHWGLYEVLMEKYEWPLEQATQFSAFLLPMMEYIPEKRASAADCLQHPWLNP
T1 sequence (P31751 whole entry): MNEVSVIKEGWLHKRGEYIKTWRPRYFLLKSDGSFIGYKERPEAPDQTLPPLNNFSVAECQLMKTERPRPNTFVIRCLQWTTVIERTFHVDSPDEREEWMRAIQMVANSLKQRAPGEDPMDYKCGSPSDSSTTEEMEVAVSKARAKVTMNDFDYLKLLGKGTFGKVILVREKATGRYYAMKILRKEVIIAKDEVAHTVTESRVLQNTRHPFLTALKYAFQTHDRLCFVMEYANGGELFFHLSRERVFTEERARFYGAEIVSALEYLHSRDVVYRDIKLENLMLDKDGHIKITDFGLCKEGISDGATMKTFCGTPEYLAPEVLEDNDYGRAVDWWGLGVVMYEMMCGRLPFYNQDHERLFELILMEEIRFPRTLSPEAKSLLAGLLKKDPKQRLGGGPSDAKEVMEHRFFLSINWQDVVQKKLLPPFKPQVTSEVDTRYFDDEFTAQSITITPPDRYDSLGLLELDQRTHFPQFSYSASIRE
T4 sequence (Q9UKE5 whole entry): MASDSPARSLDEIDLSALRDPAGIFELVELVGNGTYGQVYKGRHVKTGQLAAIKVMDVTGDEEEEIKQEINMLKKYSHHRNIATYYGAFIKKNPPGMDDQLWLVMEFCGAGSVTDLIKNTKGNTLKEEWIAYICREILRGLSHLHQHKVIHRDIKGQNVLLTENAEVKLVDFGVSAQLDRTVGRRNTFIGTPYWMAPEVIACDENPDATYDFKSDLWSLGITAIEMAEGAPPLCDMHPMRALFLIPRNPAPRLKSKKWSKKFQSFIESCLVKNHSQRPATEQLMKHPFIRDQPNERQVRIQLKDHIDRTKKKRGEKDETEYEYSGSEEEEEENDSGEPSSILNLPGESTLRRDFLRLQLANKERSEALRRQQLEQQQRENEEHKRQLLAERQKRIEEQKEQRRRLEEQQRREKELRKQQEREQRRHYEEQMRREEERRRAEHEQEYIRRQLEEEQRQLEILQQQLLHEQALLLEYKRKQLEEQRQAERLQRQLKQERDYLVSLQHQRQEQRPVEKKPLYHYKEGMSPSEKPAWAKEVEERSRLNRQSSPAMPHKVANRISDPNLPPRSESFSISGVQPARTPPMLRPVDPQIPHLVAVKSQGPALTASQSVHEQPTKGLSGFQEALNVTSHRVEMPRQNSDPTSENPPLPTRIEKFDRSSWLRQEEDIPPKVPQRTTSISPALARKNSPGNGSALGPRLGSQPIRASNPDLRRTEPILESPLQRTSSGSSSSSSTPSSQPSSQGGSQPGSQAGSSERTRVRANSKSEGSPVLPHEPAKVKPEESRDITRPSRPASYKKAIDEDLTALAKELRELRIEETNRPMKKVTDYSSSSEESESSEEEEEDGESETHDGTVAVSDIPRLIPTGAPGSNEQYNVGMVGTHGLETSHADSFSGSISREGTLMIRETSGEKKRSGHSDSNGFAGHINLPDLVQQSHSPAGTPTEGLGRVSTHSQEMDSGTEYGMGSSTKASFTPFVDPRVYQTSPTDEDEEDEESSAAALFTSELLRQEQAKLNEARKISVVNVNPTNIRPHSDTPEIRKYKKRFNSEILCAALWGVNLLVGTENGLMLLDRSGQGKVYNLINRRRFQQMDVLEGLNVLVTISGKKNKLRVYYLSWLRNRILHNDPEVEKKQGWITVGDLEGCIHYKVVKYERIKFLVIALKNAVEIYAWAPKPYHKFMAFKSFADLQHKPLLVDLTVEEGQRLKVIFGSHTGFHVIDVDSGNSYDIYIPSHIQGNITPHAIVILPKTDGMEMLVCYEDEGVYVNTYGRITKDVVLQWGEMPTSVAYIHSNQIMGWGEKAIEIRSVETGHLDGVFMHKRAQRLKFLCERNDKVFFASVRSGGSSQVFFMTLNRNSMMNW
T9 sequence (Q9Y2K2 whole entry): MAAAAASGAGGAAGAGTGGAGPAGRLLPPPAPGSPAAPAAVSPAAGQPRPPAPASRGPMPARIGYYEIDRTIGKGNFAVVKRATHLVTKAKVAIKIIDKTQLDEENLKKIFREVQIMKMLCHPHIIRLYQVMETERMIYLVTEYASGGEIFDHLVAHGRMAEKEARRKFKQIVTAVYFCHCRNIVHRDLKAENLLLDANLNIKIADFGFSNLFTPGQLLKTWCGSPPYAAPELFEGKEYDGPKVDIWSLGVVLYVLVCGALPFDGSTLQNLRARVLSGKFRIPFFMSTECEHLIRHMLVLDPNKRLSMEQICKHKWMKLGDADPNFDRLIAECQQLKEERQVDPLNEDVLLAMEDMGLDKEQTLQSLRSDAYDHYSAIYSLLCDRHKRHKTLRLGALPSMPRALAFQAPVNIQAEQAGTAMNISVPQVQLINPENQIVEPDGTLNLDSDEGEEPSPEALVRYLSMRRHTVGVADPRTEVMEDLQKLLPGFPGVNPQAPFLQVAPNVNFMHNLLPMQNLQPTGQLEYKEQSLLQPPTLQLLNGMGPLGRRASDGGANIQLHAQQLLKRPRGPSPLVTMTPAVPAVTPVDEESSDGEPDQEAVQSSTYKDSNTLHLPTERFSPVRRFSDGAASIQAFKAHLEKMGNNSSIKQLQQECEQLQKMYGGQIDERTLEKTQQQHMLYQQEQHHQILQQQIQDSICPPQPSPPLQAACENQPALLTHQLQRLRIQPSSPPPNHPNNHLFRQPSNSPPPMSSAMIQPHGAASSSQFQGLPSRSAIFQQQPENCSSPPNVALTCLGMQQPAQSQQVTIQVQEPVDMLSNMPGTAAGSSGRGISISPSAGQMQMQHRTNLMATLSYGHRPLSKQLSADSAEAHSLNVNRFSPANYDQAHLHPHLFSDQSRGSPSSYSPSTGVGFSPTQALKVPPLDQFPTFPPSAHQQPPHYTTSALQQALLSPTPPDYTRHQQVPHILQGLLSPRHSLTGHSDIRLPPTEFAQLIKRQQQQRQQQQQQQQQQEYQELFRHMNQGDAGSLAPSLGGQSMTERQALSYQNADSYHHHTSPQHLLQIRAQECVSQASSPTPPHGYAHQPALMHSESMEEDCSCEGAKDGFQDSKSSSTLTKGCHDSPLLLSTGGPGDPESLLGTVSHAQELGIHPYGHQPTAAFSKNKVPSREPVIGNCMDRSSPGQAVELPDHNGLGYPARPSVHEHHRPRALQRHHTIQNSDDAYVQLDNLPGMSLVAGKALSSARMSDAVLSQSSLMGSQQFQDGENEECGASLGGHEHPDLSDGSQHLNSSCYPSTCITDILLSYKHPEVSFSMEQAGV
T3 sequence (Q9P289 whole entry): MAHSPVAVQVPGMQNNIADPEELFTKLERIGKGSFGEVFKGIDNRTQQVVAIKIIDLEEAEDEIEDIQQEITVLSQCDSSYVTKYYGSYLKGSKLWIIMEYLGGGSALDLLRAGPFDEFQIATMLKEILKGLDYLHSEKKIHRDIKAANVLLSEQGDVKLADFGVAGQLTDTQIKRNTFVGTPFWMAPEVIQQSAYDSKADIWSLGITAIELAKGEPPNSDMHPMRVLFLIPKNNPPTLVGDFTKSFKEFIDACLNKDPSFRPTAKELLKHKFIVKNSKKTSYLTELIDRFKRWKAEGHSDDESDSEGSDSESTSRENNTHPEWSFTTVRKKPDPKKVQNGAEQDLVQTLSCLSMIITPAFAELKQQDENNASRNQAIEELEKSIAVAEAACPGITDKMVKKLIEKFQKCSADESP
T8 sequence (Q86UX6 whole entry): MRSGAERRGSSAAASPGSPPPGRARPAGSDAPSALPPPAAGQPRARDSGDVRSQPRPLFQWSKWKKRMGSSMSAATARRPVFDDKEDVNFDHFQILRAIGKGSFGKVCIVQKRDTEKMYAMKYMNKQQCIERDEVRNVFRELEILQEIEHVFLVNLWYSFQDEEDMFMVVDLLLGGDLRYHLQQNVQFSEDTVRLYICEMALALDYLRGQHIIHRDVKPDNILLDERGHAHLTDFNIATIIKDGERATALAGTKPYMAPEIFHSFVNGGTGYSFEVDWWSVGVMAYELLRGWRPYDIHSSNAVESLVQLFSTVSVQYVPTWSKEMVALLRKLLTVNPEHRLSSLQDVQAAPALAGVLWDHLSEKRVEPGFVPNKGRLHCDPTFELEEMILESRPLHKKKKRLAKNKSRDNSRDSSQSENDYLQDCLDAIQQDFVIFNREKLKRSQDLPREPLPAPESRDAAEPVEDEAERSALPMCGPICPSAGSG

With `C=CC(=O)Nc1cc(-c2cc(-c3cc4c([nH]3)CCNC4=O)ccn2)ccc1OC(F)(F)F` [compound 11] the inhibition at 0.01 µM ([1]; 10 nM) was 1%, the inhibition at 0.1 µM ([1]; 100 nM) was 3% and the inhibition at 1 µM ([1]; 1000 nM) was 0%. For the same compound, the inhibition at 0.01 µM ([2]; 10 nM) was -3%, the inhibition at 0.1 µM ([2]; 100 nM) was -1% and the inhibition at 1 µM ([2]; 1000 nM) was 2%. The inhibition at 0.01 µM ([3]; 10 nM) was -5%, the inhibition at 0.1 µM ([3]; 100 nM) was -8% and the inhibition at 1 µM ([3]; 1000 nM) was 2%. The inhibition at 0.01 µM ([4]; 10 nM) was -12%, the inhibition at 0.1 µM ([4]; 100 nM) was 9% and the inhibition at 1 µM ([4]; 1000 nM) was 42%. The inhibition at 0.01 µM ([5]; 10 nM) was -3%, the inhibition at 0.1 µM ([5]; 100 nM) was -8% and the inhibition at 1 µM ([5]; 1000 nM) was -2%. The inhibition at 0.01 µM ([6]; 10 nM) was 10%, the inhibition at 0.1 µM ([6]; 100 nM) was 6% and the inhibition at 1 µM ([6]; 1000 nM) was 15%. The inhibition at 0.01 µM ([7]; 10 nM) was -7%, the inhibition at 0.1 µM ([7]; 100 nM) was -4% and the inhibition at 1 µM ([7]; 1000 nM) was 0%. For the same compound, the inhibition at 0.01 µM ([8]; 10 nM) was 0%, the inhibition at 0.1 µM ([8]; 100 nM) was 4% and the inhibition at 1 µM ([8]; 1000 nM) was 1%. The inhibition at 0.01 µM ([9]; 10 nM) was 6%, the inhibition at 0.1 µM ([9]; 100 nM) was 1% and the inhibition at 1 µM ([9]; 1000 nM) was 12%.
